Experiment [1] concerns the target T1, GRK2 (Homo sapiens, UniProt P25098).
T1 sequence (P25098 1-689): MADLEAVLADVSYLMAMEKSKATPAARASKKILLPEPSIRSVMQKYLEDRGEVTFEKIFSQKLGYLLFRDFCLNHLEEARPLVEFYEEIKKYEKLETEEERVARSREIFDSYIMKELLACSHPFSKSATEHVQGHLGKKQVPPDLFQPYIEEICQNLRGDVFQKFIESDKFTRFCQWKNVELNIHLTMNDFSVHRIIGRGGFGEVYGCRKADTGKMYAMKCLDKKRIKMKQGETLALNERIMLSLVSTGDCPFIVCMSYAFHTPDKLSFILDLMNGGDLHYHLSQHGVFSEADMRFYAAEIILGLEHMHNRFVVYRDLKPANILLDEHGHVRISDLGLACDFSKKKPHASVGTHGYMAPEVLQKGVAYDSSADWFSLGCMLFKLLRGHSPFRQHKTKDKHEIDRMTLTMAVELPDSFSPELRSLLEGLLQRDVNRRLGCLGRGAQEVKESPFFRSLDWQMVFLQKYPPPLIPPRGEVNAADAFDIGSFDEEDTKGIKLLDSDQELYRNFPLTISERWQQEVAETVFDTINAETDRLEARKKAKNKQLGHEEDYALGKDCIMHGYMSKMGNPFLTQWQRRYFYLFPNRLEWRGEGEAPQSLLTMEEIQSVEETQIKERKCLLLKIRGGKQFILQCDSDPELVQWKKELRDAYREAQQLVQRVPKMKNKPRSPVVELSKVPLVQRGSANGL
The experiment can be described thus: GRK2 Transcreener Assay. Type of experiment: biochemical. Conditions: Biological Example 2 GRK2 Transcreener IC50 (μM), 10 nM GRK2; 10 μM ATP; 150 μM peptide substrate; multiple measurements listed individually. How it is done: Positive and negative control wells received an equal volume of DMSO. The final DMSO concentration in the assay is 1%.
The plate was placed in centrifuge equipped with a spin-bucket rotor and spun for 1 min at 1000 rpm.
GRK2 enzymatic reactions were initiated with the addition of 2 μL/well of 50 nM GRK2 in assay buffer. Plates were centrifuged for 1 min at 1000 rpm. For negative control wells, the order of reagent addition was reversed: 10 μL/well ADP detection mix (see below) was added first, followed by the addition of 2 μL/well of the GRK2 solution. Reaction mixtures were incubated at ambient temperature for 2 hours. Final concentrations of reagents in the assays were as follows:
Following incubation, the reactions were quenched with 10 μL/well of the Transcreener ADP detection mix. […] The plates were then centrifuged for 1 min at 1000 rpm.
Fluorescence polarization values of the reaction mixtures were read on a Safire plate reader after a 60 min incubation at ambient temperature. Excitation wavelength=590 nm; emission wavelength=650 nm.
The fluorescence polarization data were converted to % activity as follows:
% activity=(sample−NC)/(PC−NC)*100
where NC is the mean of negative control (ADP detection mix added prior to GRK2 addition), and PC is the mean of positive control (GRK2 reaction without inhibitor). IC50 values are determined from a 4-parameter fit, using the following equation:
Y=Bottom+(Top−Bottom)/(1+10^((Log IC50−X)*Hill slope))
where X=log10 of the compound concentration.

The target in experiment [2] is T1, GRK2. The experiment can be described thus: hGRK2 LANCE Ultra In Vitro Assay. Type of experiment: biochemical. The gist of the method:
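TR-FRET kinase assay with 10 nM GRK2 preincubated 30 min with compound, then 200 nM ULight-peptide and 30 or 600 μM ATP in HEPES pH 7.5, 10 mM MgCl2, 1% DMSO; 120 or 60 min at ambient temperature respectively.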
In general terms: In TR-FRET formats the signal depends on donor and acceptor labels being close together.

[3] abbreviates: Biological Example 1 GRK2 Lancer IC50 (μM), 10 nM GRK2, 30 or 600 μM ATP (not stated which), multiple measurements listed individually.

IC50 data for 26 molecules are collected here from patent US20220009906A1, “ISOINDOLIN-1-ONE DERIVATIVES USEFUL AS GRK2 INHIBITORS” (priority 2020, published 2022).

Values joined by “and” are separate entries in the source; they are usually repeats but may differ in a detail not shown here. Equal values may be shown once. Bounds are passed on as bounds.

As to `COc1cccc(CN2Cc3ccc(-c4c[nH]nn4)cc3C2=O)c1` [Compound 20, 2-(3-methoxybenzyl)-6-(1H-1,2,3-triazol-4-yl)isoindolin-1-one], the IC50 (commonly the concentration that inhibits the measured activity by half) in experiment [1] was found to be 0.02 µM.
The same measure, in the same setting: next, `COC(=O)c1cccc([C@@H](C)N2Cc3ccc(-c4cn[nH]c4)cc3C2=O)c1` [Compound 165]: above 50 µM; `COc1cccc(CN2C(=O)c3cc(-c4ccnc(N)n4)ccc3C2(C)C)c1` [Compound 17, 6-(2-aminopyrimidin-4-yl)-2-(3-methoxybenzyl)-3,3-dimethylisoindolin-1-one]: 0.048 µM; `COc1cccc(CN2C(=O)c3cc(-c4c[nH]nn4)ccc3C2(C)C)c1` [Compound 21, 2-(3-methoxybenzyl)-3,3-dimethyl-6-(1H-1,2,3-triazol-4-yl)isoindolin-1-one]: 0.054 µM.
Still for that read-out and setting: next, `O=C(O)c1cccc(CN2Cc3ccc(-c4cn[nH]c4)cc3C2=O)c1` [Compound 18]: 0.139 µM; `COc1cccc(CN2Cc3ccc(-c4ccnc(N)n4)cc3C2=O)c1` [Compound 4]: 0.08 µM.
The same measure, in the same setting: then `CNC(=O)c1ccc(-c2ccc3c(c2)C(=O)N(Cc2cccc(OC)c2)C3)cn1` [Compound 23, 5-(2-(3-methoxybenzyl)-3-oxoisoindolin-5-yl)-N-methylpicolinamide], with above 50 µM.
Turning to `COc1cccc(CN2C(=O)c3cc(-c4cn[nH]c4)ccc3C2CC#N)c1` (centres unmarked) [Compound 15], the values for the IC50 in experiment [2] (setting [3]) and in experiment [1] were 0.005 µM and below 0.005 µM, respectively.
Consider `O=C1c2cc(-c3cn[nH]c3)ccc2CN1Cc1cccc(F)c1` [Compound 16, 2-(3-Fluorobenzyl)-6-(1H-pyrazol-4-yl)isoindolin-1-one], for which the IC50 in experiment [1] stood at 0.017 µM. In other words, the double-digit nanomolar range.
For `CC(C)NC(=O)c1cccc(CN2Cc3ccc(-c4cn[nH]c4)cc3C2=O)c1` [Compound 19, N-isopropyl-3-[[1-oxo-6-(1H-pyrazol-4-yl)isoindolin-2-yl]methyl]benzamide], the IC50 in experiment [2] (setting [3]) and in experiment [1] was below 0.005 µM throughout.
Consider `CCOc1cccc(CN2Cc3ccc(-c4ccnc(N)n4)cc3C2=O)c1` [Compound 11], for which, in experiment [1], half-maximal inhibition (IC50) required 0.383 µM.
In experiment [1], `CS(=O)(=O)Nc1cccc(CN2Cc3ccc(-c4cn[nH]c4)cc3C2=O)c1` [Compound 9] returned an IC50 of 0.291 µM. This IC50 and that of the molecule before are within 1.5-fold of each other.
`CC(C)(C)OC(=O)c1cccc(CN2Cc3ccc(-c4cn[nH]c4)cc3C2=O)c1` [Compound 164] displayed an IC50 in experiment [1] of 0.305 µM. This IC50 and that of the molecule before are within 1.5-fold of each other.
Still for that read-out and setting: next, `COc1cccc(CN2C(=O)c3cc(-c4cn[nH]c4)ccc3C23CCNCC3)c1` [Compound 14, 2-(3-methoxybenzyl)-5-(1H-pyrazol-4-yl)spiro[isoindoline-1,4′-piperidin]-3-one]: below 0.005 µM; `NCc1cccc(CN2Cc3ccc(-c4cn[nH]c4)cc3C2=O)c1` [Compound 22, 2-(3-(Aminomethyl)benzyl)-6-(1H-pyrazol-4-yl)isoindolin-1-one]: 1.2 µM.
For `COc1cccc([C@@H](C)N2Cc3ccc(-c4cn[nH]c4)cc3C2=O)c1` [Compound 13, (R)-2-(1-(3-methoxyphenyl)ethyl)-6-(1H-pyrazol-4-yl)isoindolin-1-one], the IC50 in experiment [2] and in experiment [1] was below 0.005 µM in each case.
On to `COc1cccc(CN2C(=O)c3cc(-c4cn[nH]c4)ccc3C23CC=CC3)c1` [Compound 6, 2′-(3-methoxybenzyl)-5′-(1H-pyrazol-4-yl)spiro[cyclopentane-1,1′-isoindolin]-3-en-3′-one], for which the IC50 in experiment [1] turned out to be 0.01 µM.
On the same count and under the same terms, then `Cc1cccc([C@@H](C)N2Cc3ccc(-c4cn[nH]c4)cc3C2=O)n1` [Compound 25], with 0.546 µM; and `COc1cccc(CN2C(=O)c3cc(-c4cn[nH]c4)ccc3C2(C)C)c1` [Compound 7, 2-(3-methoxybenzyl)-3,3-dimethyl-6-(1H-pyrazol-4-yl)isoindolin-1-one], with 0.005 µM.
Take `COc1cccc(CN2C(=O)c3cc(-c4cn[nH]c4)ccc3C23CC(O)C(O)C3)c1` (centres unmarked) [Compound 8, 3,4-dihydroxy-2′-(3-methoxybenzyl)-5′-(1H-pyrazol-4-yl)spiro[cyclopentane-1,1′-isoindolin]-3′-one]: in experiment [1], inhibition was half-maximal at 0.009 µM (IC50). Against the preceding molecule, the IC50 is about 1.8-fold higher.
Same read-out and setting: next, `C[C@H](c1cccc2ccccc12)N1Cc2ccc(-c3cn[nH]c3)cc2C1=O` [Compound 24]: 1.46 µM; `COc1cccc(CN2Cc3ccc(-c4cn[nH]c4)cc3C2=O)c1` [Compound 1, 2-(3-methoxybenzyl)-6-(1H-pyrazol-4-yl)isoindolin-1-one]: < 0.005 µM and 0.005 µM; `CCOc1cccc(CN2Cc3ccc(-c4cn[nH]c4)cc3C2=O)c1` [Compound 2, 2-(3-ethoxybenzyl)-6-(1H-pyrazol-4-yl)isoindolin-1-one]: 0.009 µM.
The molecule `COc1cccc(CN2Cc3ccc(-c4ccncc4)cc3C2=O)c1` [Compound 66] had an IC50 in experiment [2] (setting [3]) of 0.023 µM.
`CS(=O)(=O)Nc1cccc(CN2Cc3ccc(-c4ccnc5[nH]ccc45)cc3C2=O)c1` [Compound 10] came in with an IC50 in experiment [1] of 0.719 µM.
As to `CCOc1cccc(CN2C(=O)c3cc(-c4cn[nH]c4)ccc3C2CC#N)c1` (centres unmarked) [Compound 65, 2-(2-(3-ethoxybenzyl)-3-oxo-5-(1H-pyrazol-4-yl)isoindolin-1-yl)acetonitrile], in experiment [2] (setting [3]), inhibition was half-maximal at 0.039 µM (IC50).
